Columns and labels:
EGFR [1] = biological target: T1, EGFR (Homo sapiens (Human), UniProt P00533); test: A549 cell lysis and immunoassay, phospho-EGFR (Y1068) inhibition; type: cell-based; set-up: key: X: EGFR bound and autophosphoration of EGFR inhibited in cells; conditions: A549 cells
Protocol: (§1) A549 cells (ATCC) were cultured in Dulbecco's Modified Eagle's Medium (DMEM) (Wisent) supplemented with 10% FBS and 1% penicillin/streptomycin. Cells were seeded in 6-well plates at 530,000 cells/well and incubated at 37° C., 5% CO2 for 16 hours. Cells were starved in DMEM containing 1% FBS for 4 hours before they were treated with the indicated concentrations of compound or DMSO alone and incubated at 37° C., 5% CO2 for 24 hours. Prior to cell harvest and lysis, 50 ng/ml human epidermal growth factor (hEGF) (Sigma) was added to the cells and incubated at 37° C., 5% CO2 for 10 minutes. Conditioned media was discarded, and adherent cells were washed with PBS before they were scraped on ice. Cell suspensions were centrifugated at 2,000 RPM for 5 minutes at 4° C. and supernatants were discarded. Cell pellets were resuspended with 1× RIPA buffer (Millipore) and incubated on ice for 15 minutes. Protein lysates were extracted by centrifugating at 20,000 RPM for 20 minutes at 4° C. Proteins were separated and total EGFR protein levels were quantified by Simple Western Immunoassay (ProteinSimple) using the Protein Normalization Assay Module for Jess according to the manufacturer's protocol, using a protein concentration of 0.125 μg/μl and an antibody targeting EGFR (clone #EP38Y, Abcam) diluted to 1:400. Phosphorylated EGFR protein levels were quantified with the same assay using a protein concentration of 1 μg/μl and an antibody targeting pEGFR (Y1068) (Cell Signalling) diluted to 1:25. EGFR and phosphorylated EGFR levels were normalized to the Jess Protein Normalization Reagent loading control and subsequently to the DMSO control.

EGFR [2] = biological target: T1, EGFR; test: A549 cell lysis and immunoassay, total EGFR degradation; type: cell-based; set-up: key: Y: EGFR bound in cells and EGFR degradation occurred; conditions: A549 cells
Protocol: as §1

BTK [3] = biological target: T2, BTK (Homo sapiens (Human), UniProt Q06187); test: Ramos RA1 cell lysis and immunoassay, total BTK degradation; type: cell-based; set-up: key to % BTK degradation (RAMOS, 24 h): Y: BTK bound in cells and BTK degradation occurred; concentration or dose not given beside the values; key to % BTK degradation (RAMOS, 10 uM, 24 h): Y: EGFR bound in cells and EGFR degradation occurred; conditions: RAMOS cells
Protocol: Ramos RA 1 cells (ATCC) were cultured in RPMI-1640 media (Wisent) supplemented with 10% heat-inactivated FBS and 1% penicillin/streptomycin. Cells were seeded in 6-well plates at 1.71×10^6 cells/well and incubated at 37° C., 5% CO2 for 16 hours. Cells were treated with compound at the indicated concentrations or DMSO alone and incubated at 37° C., 5% CO2 for 24 hours. Cell suspensions were centrifugated at 1,400-1,600 RPM for 5 minutes at room temperature and supernatants were discarded. Cell pellets were resuspended with 1× RIPA buffer (Millipore) and incubated on ice for 15 minutes. Protein lysates were extracted by centrifugating at 20,000 RPM for 20 minutes at 4° C. Proteins were separated and total BTK protein levels were quantified by Simple Western Immunoassay (ProteinSimple) using the 12-230 kDa Jess Separation Module according to the manufacturer's protocol, using a protein concentration of 0.25 μg/μl and antibodies targeting BTK (clone #D3H5, Cell Signalling) and β-Actin (clone #AC-15, Santa Cruz) diluted to 1:400 and 1:10, respectively, where the latter was used as a loading control. An equal ratio of rabbit and mouse HRP-conjugated secondary antibodies was used for detection. BTK protein levels were quantified relative to S-Actin loading levels and subsequently normalized to the DMSO control. Phosphorylated BTK levels were quantified using the Protein Normalization Assay Module for Jess (ProteinSimple) according to the manufacturer's protocol, using a protein concentration of 1.5 μg/μl and an antibody targeting pBTK (Y223) (Cell Signalling) diluted to 1:50. Phosphorylated BTK levels were quantified relative to the Protein Normalization Reagent and subsequently normalized to the DMSO control.

BTK [4] = biological target: T2, BTK; test: Jump dilution experiment, BTK; type: biochemical; conditions: 1.5-h incubation, 142 nM BTK, 10×IC50 compound, 100-fold dilution
Protocol: (§2) Sample containing only DMSO vehicle was used as a positive (full activity) control while sample with no enzyme was used as a negative (zero activity) control. After the preincubation, the mixture was diluted 100-fold into a reaction mixture containing 1 uM biotinylated substrate and 28 uM ATP and the reaction was allowed to proceed for various time points (2, 5, 10, 15, 20, 30, 45 and 60 min), at which the reaction was terminated by adding 1 ul of 0.5 M EDTA. 62.5 nM SA-XL665 and 100-fold diluted europium labelled antibody (Eu-Ab), diluted in 1× detection buffer, was added as detection mixture. After 60 min of incubation, the fluorescence emission was measured at 620 nm and 665 nm. The ratio of Em 665 nm to Em 620 nm was proportional to the amount of substrate phosphorylated by the kinase.

EGFR [5] = biological target: T1, EGFR; test: Jump dilution experiment, EGFR; type: biochemical; conditions: 1.5-h incubation, 46 nM EGFR, 10×IC50 compound, 100-fold dilution
Protocol: as §2, with “Six compounds (used at 10 times their IC50 concentrations) were pre incubated with EGFR (at 46 nM or 100-fold the normal assay concentration) for 1.5 h at room temperature. Sample” for “Sample”, “containing 0.5” for “containing 1”, “and 1.57” for “and 28”, “15,” for “15, 20,”, “30, 40,” for “30,”, “EDTA. 31.25” for “EDTA. 62.5”

[6] = compound concentration 10, 24 h

T1 sequence (P00533 25-1210): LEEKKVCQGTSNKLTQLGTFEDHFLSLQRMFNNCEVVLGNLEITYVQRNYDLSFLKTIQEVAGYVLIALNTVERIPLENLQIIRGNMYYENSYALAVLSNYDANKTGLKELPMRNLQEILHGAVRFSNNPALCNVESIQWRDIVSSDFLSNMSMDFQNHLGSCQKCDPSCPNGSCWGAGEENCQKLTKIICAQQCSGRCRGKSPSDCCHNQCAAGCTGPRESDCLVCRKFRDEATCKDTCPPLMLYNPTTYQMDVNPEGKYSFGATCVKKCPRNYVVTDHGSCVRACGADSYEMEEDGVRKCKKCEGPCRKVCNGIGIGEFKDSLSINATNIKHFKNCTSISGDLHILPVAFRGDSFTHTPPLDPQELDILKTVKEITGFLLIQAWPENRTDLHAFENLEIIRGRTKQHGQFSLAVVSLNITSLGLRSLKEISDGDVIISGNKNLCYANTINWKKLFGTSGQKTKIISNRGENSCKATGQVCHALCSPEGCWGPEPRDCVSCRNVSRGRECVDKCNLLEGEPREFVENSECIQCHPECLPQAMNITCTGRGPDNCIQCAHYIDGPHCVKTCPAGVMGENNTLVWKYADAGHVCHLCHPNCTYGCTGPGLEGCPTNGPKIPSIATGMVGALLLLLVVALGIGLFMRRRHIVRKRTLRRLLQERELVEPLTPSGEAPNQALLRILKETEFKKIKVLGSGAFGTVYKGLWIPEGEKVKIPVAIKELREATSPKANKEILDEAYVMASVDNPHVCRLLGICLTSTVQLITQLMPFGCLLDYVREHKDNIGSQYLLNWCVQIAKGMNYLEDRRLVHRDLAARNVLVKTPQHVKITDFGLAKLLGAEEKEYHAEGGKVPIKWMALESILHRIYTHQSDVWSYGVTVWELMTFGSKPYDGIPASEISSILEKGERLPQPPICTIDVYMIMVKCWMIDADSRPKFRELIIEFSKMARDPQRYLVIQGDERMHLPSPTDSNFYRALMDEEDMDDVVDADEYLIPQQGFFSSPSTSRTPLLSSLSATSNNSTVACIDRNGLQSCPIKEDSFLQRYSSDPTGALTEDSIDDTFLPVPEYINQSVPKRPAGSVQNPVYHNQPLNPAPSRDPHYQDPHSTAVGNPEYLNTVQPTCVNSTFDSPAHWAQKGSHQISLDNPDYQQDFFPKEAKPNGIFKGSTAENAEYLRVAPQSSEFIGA
T2 sequence (Q06187 whole entry): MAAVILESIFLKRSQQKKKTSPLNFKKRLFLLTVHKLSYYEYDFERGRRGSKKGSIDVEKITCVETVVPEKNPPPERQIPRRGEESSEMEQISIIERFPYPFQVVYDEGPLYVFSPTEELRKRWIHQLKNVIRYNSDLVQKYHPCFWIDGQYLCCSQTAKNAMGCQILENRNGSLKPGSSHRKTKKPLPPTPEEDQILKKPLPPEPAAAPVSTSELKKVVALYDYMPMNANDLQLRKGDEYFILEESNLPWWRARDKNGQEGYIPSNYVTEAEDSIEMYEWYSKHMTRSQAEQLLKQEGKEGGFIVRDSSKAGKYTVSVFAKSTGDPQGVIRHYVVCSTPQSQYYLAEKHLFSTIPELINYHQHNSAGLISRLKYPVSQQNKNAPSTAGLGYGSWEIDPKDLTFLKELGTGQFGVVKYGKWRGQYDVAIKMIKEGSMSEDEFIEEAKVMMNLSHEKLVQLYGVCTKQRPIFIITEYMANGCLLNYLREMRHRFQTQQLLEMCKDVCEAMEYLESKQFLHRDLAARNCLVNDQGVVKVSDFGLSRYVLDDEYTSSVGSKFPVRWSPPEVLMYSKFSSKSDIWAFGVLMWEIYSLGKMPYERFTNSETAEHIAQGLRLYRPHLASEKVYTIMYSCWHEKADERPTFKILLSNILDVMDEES

## C[S@+]([O-])c1c(F)c(F)c(F)c(F)c1C(=O)N1CC(n2nc(-c3ccc(Oc4ccccc4)cc3)c3c(N)ncnc32)C1 (racemic) [Compound I-37, (3-(4-amino-3-(4-phenoxyphenyl)-1H-pyrazolo[3,4-d]pyrimidin-1-yl)azetidin-1-yl)(2,3,4,5-tetrafluoro-6-(methylsulfinyl)phenyl)methanone]
EGFR [1]
  pEGFR inhibition (A549, 1 μM, 24 h): X
EGFR [1]; compound concentration 10 μM
  pEGFR inhibition (A549, compound concentration, 24 h): X
EGFR [2]
  EGFR degradation (A549, 1 μM, 24 h): Y
EGFR [2]; [6]
  EGFR degradation (A549, compound concentration, 24 h): Y
BTK [3]
  % BTK degradation (RAMOS, 24 h): Y
BTK [4]
  residual activity of BTK after jump dilution, relative to enzyme incubated with DMSO alone: less than 1%

## CS(=O)(=O)c1c(F)c(F)c(F)c(F)c1Nc1cc2c(Nc3ccc(F)c(Cl)c3)ncnc2cc1O[C@H]1CCOC1 [Compound I-2, (S)—N^4-(3-chloro-4-fluorophenyl)-N^6-(2,3,4,5-tetrafluoro-6-(methylsulfonyl)phenyl)-7-((tetrahydrofuran-3-yl)oxy)quinazoline-4,6-diamine]
EGFR [1]
  pEGFR inhibition (A549, 1 μM, 24 h): X
EGFR [1]; compound concentration 10 μM
  pEGFR inhibition (A549, compound concentration, 24 h): X
EGFR [2]
  EGFR degradation (A549, 1 μM, 24 h): Y
EGFR [2]; [6]
  EGFR degradation (A549, compound concentration, 24 h): Y
BTK [3]
  % BTK degradation (RAMOS, 24 h): Y
EGFR [5]
  residual activity of EGFR after jump dilution, relative to enzyme incubated with DMSO alone: less than 20%

## C[S+]([O-])c1c(F)c(F)c(F)c(F)c1C(=O)Nc1cc2c(Nc3ccc(F)c(Cl)c3)ncnc2cc1OC1CCOC1 (stereo not drawn) [Compound I-3]
EGFR [1]
  pEGFR inhibition (A549, 1 μM, 24 h): X
EGFR [1]; compound concentration 10 μM
  pEGFR inhibition (A549, compound concentration, 24 h): X
EGFR [2]; [6]
  EGFR degradation (A549, compound concentration, 24 h): Y
BTK [3]
  % BTK degradation (RAMOS, 24 h): Y
EGFR [5]
  residual activity of EGFR after jump dilution, relative to enzyme incubated with DMSO alone: less than 20%

## C[S+]([O-])c1c(F)c(F)c(F)c(F)c1Nc1cc2c(Nc3ccc(F)c(Cl)c3)ncnc2cc1O[C@H]1CCOC1 (stereo partly drawn) [Compound I-4, N^4-(3-chloro-4-fluorophenyl)-N^6-(2,3,4,5-tetrafluoro-6-(methylsulfinyl)phenyl)-7-(((S)-tetrahydrofuran-3-yl)oxy)quinazoline-4,6-diamine]
EGFR [1]
  pEGFR inhibition (A549, 1 μM, 24 h): X
EGFR [1]; compound concentration 10 μM
  pEGFR inhibition (A549, compound concentration, 24 h): X
EGFR [2]
  EGFR degradation (A549, 1 μM, 24 h): Y
EGFR [2]; [6]
  EGFR degradation (A549, compound concentration, 24 h): Y
BTK [3]
  % BTK degradation (RAMOS, 24 h): Y
BTK [3]; 10 uM
  % BTK degradation (RAMOS, 10 uM, 24 h): Y
EGFR [5]
  residual activity of EGFR after jump dilution, relative to enzyme incubated with DMSO alone: less than 20%

## CN(CCn1nc(-c2ccc(Oc3ccccc3)cc2)c2c(N)ncnc21)C(=O)c1c(F)c(F)c(F)c(F)c1S(N)(=O)=O [Compound I-33, N-(2-(4-amino-3-(4-phenoxyphenyl)-1H-pyrazolo[3,4-d]pyrimidin-1-yl)ethyl)-2,3,4,5-tetrafluoro-N-methyl-6-sulfamoylbenzamide]
EGFR [1]
  pEGFR inhibition (A549, 1 μM, 24 h): X
EGFR [1]; compound concentration 10 μM
  pEGFR inhibition (A549, compound concentration, 24 h): X
EGFR [2]
  EGFR degradation (A549, 1 μM, 24 h): Y
EGFR [2]; [6]
  EGFR degradation (A549, compound concentration, 24 h): Y
BTK [3]
  % BTK degradation (RAMOS, 24 h): Y
BTK [4]
  residual activity of BTK after jump dilution, relative to enzyme incubated with DMSO alone: less than 1%

## Nc1ncnc2c1c(-c1ccc(Oc3ccccc3)cc1)nn2CCCNC(=O)c1c(F)c(F)c(F)c(F)c1S(N)(=O)=O [Compound I-34, N-(3-(4-amino-3-(4-phenoxyphenyl)-1H-pyrazolo[3,4-d]pyrimidin-1-yl)propyl)-2,3,4,5-tetrafluoro-6-sulfamoylbenzamide]
EGFR [1]
  pEGFR inhibition (A549, 1 μM, 24 h): X
EGFR [2]
  EGFR degradation (A549, 1 μM, 24 h): Y
EGFR [2]; [6]
  EGFR degradation (A549, compound concentration, 24 h): Y
BTK [3]
  % BTK degradation (RAMOS, 24 h): Y
BTK [4]
  residual activity of BTK after jump dilution, relative to enzyme incubated with DMSO alone: less than 1%

## CS(=O)(=O)c1c(F)c(F)c(F)c(F)c1C(=O)NCCn1nc(-c2ccc(Oc3ccccc3)cc2)c2c(N)ncnc21 [Compound I-38, N-(2-(4-amino-3-(4-phenoxyphenyl)-1H-pyrazolo[3,4-d]pyrimidin-1-yl)ethyl)-2,3,4,5-tetrafluoro-6-(methylsulfonyl)benzamide]
EGFR [1]
  pEGFR inhibition (A549, 1 μM, 24 h): X
EGFR [2]
  EGFR degradation (A549, 1 μM, 24 h): Y
EGFR [2]; [6]
  EGFR degradation (A549, compound concentration, 24 h): Y
BTK [3]
  % BTK degradation (RAMOS, 24 h): Y
BTK [4]
  residual activity of BTK after jump dilution, relative to enzyme incubated with DMSO alone: less than 1%

## CN(C)S(=O)(=O)c1c(F)c(F)c(F)c(F)c1C(=O)NCCn1nc(-c2ccc(Oc3ccccc3)cc2)c2c(N)ncnc21 [Compound I-40, N-(2-(4-amino-3-(4-phenoxyphenyl)-1H-pyrazolo[3,4-d]pyrimidin-1-yl)ethyl)-2-(N,N-dimethylsulfamoyl)-3,4,5,6-tetrafluorobenzamide]
EGFR [1]
  pEGFR inhibition (A549, 1 μM, 24 h): X
EGFR [1]; compound concentration 5 μM
  pEGFR inhibition (A549, compound concentration, 24 h): X
EGFR [2]; compound concentration 5, 24 h
  EGFR degradation (A549, compound concentration, 24 h): Y
BTK [3]
  % BTK degradation (RAMOS, 24 h): Y
BTK [4]
  residual activity of BTK after jump dilution, relative to enzyme incubated with DMSO alone: less than 1%
